Columns and labels:
NF-kB = NF-kB driven transcription in TNF-α stimulated HaCaT cells; type: cell-based; conditions: human keratinocytes (HaCaT), read-out: IC50 of inhibition of NF-kB-driven transcription
Description: (§1) To evaluate the anti-inflammatory activity of the extract according to the present invention, the in vitro effect after exposure to pro-inflammatory stimuli on the expression levels of factors known to be involved in inflammatory processes was evaluated.
The nuclear transcription factor NF-kB is activated by pro-inflammatory stimuli and activates the transcription of genes that amplify the inflammatory process, such as MMP-9, cytokines and growth factors such as VEGF.

HaCaT cells = assay: MTT cytotoxicity assay on HaCaT cells; type: cell-based, human; conditions: 6 or 24 hours (FIG. 4)
Description: (§2) The cytotoxicity tests were performed using the MTT assay, capable of measuring the mitochondrial succinic dehydrogenase enzyme, whose activity indicates cell viability, on human keratinocytes or fibroblasts incubated with the Cannabis sativa extract according to example 2 and with pure CBD. The integrity of the morphology before and after 6 and 24 hour incubation was assessed by light microscopy.
(§3) HaCaT cells, spontaneously immortalized human keratinocyte line (Boukamp et al., 1988) and normal human dermal fibroblasts (HDF) were cultured in DMEM (Gibco, Life Technologies, Monza, Italy) supplemented with 10% heat inactivated fetal bovine serum (Euroclone SpA, Milan, Italy), L-glutamine (2 mM; Gibco, Life Technologies, Monza, Italy), penicillin (100 U/ml), and streptomycin ([…]; Gibco, Life Technologies, Monza, Italy), at 37° C. in a humidified atmosphere containing 5% CO2. Every 4 days, at 80-90% confluence, the cells were detached using 0.25% trypsin-EDTA (Gibco, Life Technologies, Monza, Italy), counted and placed in a new flask at a density of 1.5×10^6 cells per flask, to allow for growth. For the purpose of the present analyses, the cells were seeded in 24-well plates and incubated with the extract according to the present invention or pure CBD at increasing concentrations. […]

IL-8 [1] = assay: IL-8 release in TNF-α stimulated HDF cells; type: cell-based; conditions: human fibroblasts (HDF)
From the text: (§4) FIG. 7: effect evaluated on TNF-α stimulated HDF cells (A) on transcription induced by NF-kB and on release of (B) IL8, (C) MMP-9 following exposure to the indicated doses of the composition according to the present invention and, for comparative purposes, (D) on NF-kB-induced transcription and (E) IL8, (F) MMP-9 release following exposure to pure CBD.
as §1
(§5) In particular, the following were chosen as inflammation markers: • IL-8, a cytokine secreted by keratinocytes and fibroblasts following inflammation and particularly involved in skin diseases such as psoriasis; • MMP-9, a metalloprotease which degrades the extracellular matrix and which is activated following chronic skin inflammations such as dermatitis and psoriasis; • VEGF, the release of which by keratinocytes leads to the formation of the classic psoriatic plaques in patients suffering from this pathology.
(§6) FIG. 7 reports the results obtained in human fibroblasts.

MMP-9 [2] = assay: MMP-9 release in TNF-α stimulated HDF cells; type: cell-based; conditions: human fibroblasts (HDF)
From the text: as §4, §1, §5, §6

HDF cells = assay: MTT cytotoxicity assay on HDF cells; type: cell-based, human; conditions: 6 or 24 hours (FIG. 3)
Description: as §2, §3

VEGF = VEGF secretion in TNF-α stimulated HaCaT cells; type: cell-based; conditions: human keratinocytes (HaCaT), TNF-α 10 ng/ml
Description: as §1, §5

IL-8 [3] = assay: IL-8 secretion in TNF-α stimulated HaCaT cells; type: cell-based; conditions: human keratinocytes (HaCaT), TNF-α 10 ng/ml
Description: as §1, §5

MMP-9 [4] = assay: MMP-9 secretion in TNF-α stimulated HaCaT cells; type: cell-based; conditions: human keratinocytes (HaCaT), TNF-α 10 ng/ml
Description: as §1, §5

With C=C(C)[C@@H]1CCC(C)=C[C@H]1c1c(O)cc(CCCCC)cc1O [CBD, cannabidiol] the IC50 (NF-kB) was 2850 nM, the “concentrations showing cytotoxic effects” value (HaCaT cells) was “above 5 μM” and the “effect on release of IL-8” value (IL-8 [1]) was “no effect”. For the same compound, the “effect on release of MMP-9” value (MMP-9 [2]) was “no effect”, the “concentrations showing cytotoxic effects” value (HDF cells) was “above 2.5 μM” and the “effect on expression levels of VEGF” value (VEGF) was “modest”. For the same compound, the “effect on expression levels of IL-8” value (IL-8 [3]) was “no effect” and the “effect on expression levels of MMP-9” value (MMP-9 [4]) was “modest”.
